Laboratory results published in patent US7781565B2 (priority 2006, dated 2010).
Entries after “also recorded” stand apart in the source; their conditions may differ.

system: NCI-60 cell lines; assay type: cell-based, human

Substance	Cell Line (NCI-60 cell line the peptide is associated with)	Cell Line the peptide is associated with (peptide recovered from phage library selection on this NCI-60 cell line)	Cell Line (NCI-60 cell line the peptide and its motif are associated with)	Cell Line with which the peptide (and its tripeptide motif) is associated
GGVLGSD	LOX-IMVI Melanoma	–	–	–
KVVGRLG	HCT-116 Colon	–	–	–
VALGVSS	–	T-47D Breast	–	–
RAVGRQL	–	–	OVCAR-5 Ovarian	–
SGVSNPG	–	MDA-MB-231 Breast	–	–
SAGGWCA	LOX-IMVI Melanoma	–	–	–
SRSGRLN	–	–	SK-MEL-2 Melanoma	–
LGGGGLL	KM-12C Colon	–	–	–
GSSELSR	–	–	DU-145 Prostate	–
KGRVSAG	SNB-19 CNS; also recorded: SF-539 CNS	–	–	–
RDLAGPS	–	–	OVCAR-4 Ovarian	–
SYMGAAS	–	SN12C Renal	–	–
AGDSRLS	HCT-15 Colon	–	–	–
GSGILDL	–	–	–	EKVX-Lung
GAVTGYP	SF-268 CNS	–	–	–
PLLREVG	–	SN12C Renal	–	–
LFRWGGR	–	–	SK-MEL-28 Melanoma	–
SHTAGGG	–	–	PC3 Prostate	–
LGAGMIA	–	–	OVCAR-8 Ovarian	–
GDLRVSV	–	UO31 Renal	–	–
TEGTRGV	–	RXF393 Renal	–	–
GGLMPRY	–	BT-549 Breast	–	–

Substance	Cell Line (NCI-60 cell line the peptide is associated with)	Cell Line the peptide is associated with (peptide recovered from phage library selection on this NCI-60 cell line)	Cell Line (NCI-60 cell line the peptide and its motif are associated with)	Cell Line with which the peptide (and its tripeptide motif) is associated
GSVLPVL	–	–	SK-OV-3-3 Ovarian	–
GGSGIGS	–	–	–	Hop-92-Lung
YWGGSVP	–	UO31 Renal	–	–
NEGRLGI	SNB-75 CNS	–	–	–
EVASGLV	–	–	SK-MEL-2 Melanoma	–
RAAVGAR	–	–	–	H23-Lung
SQFGPSF	–	–	SK-OV-3-3 Ovarian	–
AGRGISQ	–	–	UACC62 Melanoma	–
SKAVLRS	–	–	SK-MEL-2 Melanoma	–
WARAGGF	SNB-19 CNS; also recorded: SF-539 CNS	–	–	–
LVRSSGL	–	–	–	Hop-92-Lung
SGPAGSF	–	–	OVCAR-4 Ovarian	–
GEHGLGA	–	–	–	H23-Lung
NCYSLRS	–	–	OVCAR-4 Ovarian	–
GVRTAGP	–	–	–	A549-Lung
EADPGAV	–	–	UACC 257 Melanoma	–
SNPGSGS	–	–	UACC62 Melanoma	–
LVSYSAV	–	RXF393 Renal	–	–
RVAAGGL	–	T-47D Breast	–	–
RRGLGDA	–	TK-10 Renal	–	–
YLLRALG	SF-268 CNS	–	–	–
ASLPMLH	–	ACHN Renal	–	–

Substance	Cell Line (NCI-60 cell line the peptide is associated with)	Cell Line the peptide is associated with (peptide recovered from phage library selection on this NCI-60 cell line)	Cell Line (NCI-60 cell line the peptide and its motif are associated with)	Cell Line with which the peptide (and its tripeptide motif) is associated
SERSSLG	–	–	–	Hop-92-Lung
GGRPTVT	–	HS 578 T Breast	–	–
SGLVAMV	SW620-Colon	–	–	–
ASVRAGR	–	–	–	Molt-4-Leukemia
SVTGSVG	–	–	IGROV1 Ovarian	–
GVLARVT	–	–	–	CCRF-CEM Leukemia
LRLSSIP	–	–	–	CCRF-CEM Leukemia
AWRHAGG	SNB-19 CNS; also recorded: SF-539 CNS	–	–	–
PIGGLFG	–	ACHN Renal	–	–
GSSYSGP	HCT-116 Colon	–	–	–
GQGAASL	–	–	–	H522-Lung
GLLSLXL	–	–	–	CCRF-CEM Leukemia
RLSTFAG	SNB-19 CNS; also recorded: SF-539 CNS	–	–	–
GSVSAGA	HT-29 Colon	–	–	–
AMRPGRL	–	–	–	RPMI-8226-Leukemia
PRLGRLL	–	TK-10 Renal	–	–
ESATGVS	–	MDA-MB-231 Breast	–	–
QARGSWL	–	–	OVCAR-4 Ovarian	–
SLYRGRL	–	T-47D Breast	–	–
RSWNAGR	–	UO31 Renal	–	–
LGGSRDL	HCT-116 Colon	–	–	–
LLRRGIG	–	–	SK-MEL-5 Melanoma	–

Substance	Cell Line (NCI-60 cell line the peptide is associated with)	Cell Line the peptide is associated with (peptide recovered from phage library selection on this NCI-60 cell line)	Cell Line (NCI-60 cell line the peptide and its motif are associated with)	Cell Line with which the peptide (and its tripeptide motif) is associated
TLGVLVT	–	NCI/ADR-RES Breast	–	–
VGLRCSV	–	BT-549 Breast	–	–
LIGRASM	–	–	SK-OV-3-3 Ovarian	–
SVSGAGS	–	–	OVCAR-5 Ovarian	–
YVRIGRV	HCT-15 Colon	–	–	–
GGLEQDG	–	SN12C Renal	–	–
NSKPLVS	–	T-47D Breast	–	–
HGLVTHN	MALME-3M Melanoma	–	–	–
FRALGGL	SNB-75 CNS	–	–	–
GAGRGTP	HT-29 Colon	–	–	–
SGGAVHF	–	–	–	SR Leukemia
LDRSGGL	HCT-116 Colon	–	–	–
DGSVLVE	–	–	–	Molt-4-Leukemia
AGSAFWA	–	–	786-0 Renal	–
GSGGSVH	–	–	–	Hop-92-Lung
LAGGWGS	SF-295 CNS	–	–	–
WQVALRS	HT-29 Colon	–	–	–
QGLVRGG	–	–	OVCAR-4 Ovarian	–
ADWGVLE	SNB-75 CNS	–	–	–
DGVSSDY	COLO-205-Colon	–	–	–
GGSAWWG	–	–	DU-145 Prostate	–
TLGLRVP	–	TK-10 Renal	–	–

Substance	Cell Line (NCI-60 cell line the peptide is associated with)	Cell Line the peptide is associated with (peptide recovered from phage library selection on this NCI-60 cell line)	Cell Line (NCI-60 cell line the peptide and its motif are associated with)	Cell Line with which the peptide (and its tripeptide motif) is associated
AHYTLRS	COLO-205-Colon	–	–	–
GRLSRAP	–	–	OVCAR-4 Ovarian	–
DLRLSFP	–	–	UACC 257 Melanoma	–
LYMGGSH	–	TK-10 Renal	–	–
FLLSRSA	–	NCI/ADR-RES Breast	–	–
MYLRLLR	HCT-116 Colon	–	–	–
ALARGSG	–	–	SK-MEL-2 Melanoma	–
TTQLRGV	–	–	UACC62 Melanoma	–
ARGVSAP	KM-12C Colon	–	–	–
PATRGSV	–	–	–	Hop-92-Lung
RARTGGS	SNB-75 CNS	–	–	–
AGGPSSY	–	UO31 Renal	–	–
GRERVSH	–	CAIK-1 Renal	–	–
KVSVASL	–	–	SK-MEL-5 Melanoma	–
YGALAGL	–	–	PC3 Prostate	–
ACGSGLD	–	–	SK-MEL-5 Melanoma	–
RRAGGSV	–	–	OVCAR-5 Ovarian	–
AGLTIGI	SNB-19 CNS; also recorded: SF-539 CNS	–	–	–
RNSRAGL	–	UO31 Renal	–	–
LARGVPP	–	–	M14 Melanoma	–
MLGSASL	–	A498 Renal	–	–
RGLVRVV	COLO-205-Colon	–	–	–

Substance	Cell Line (NCI-60 cell line the peptide is associated with)	Cell Line the peptide is associated with (peptide recovered from phage library selection on this NCI-60 cell line)	Cell Line (NCI-60 cell line the peptide and its motif are associated with)	Cell Line with which the peptide (and its tripeptide motif) is associated
ASAVSGR	HT-29 Colon	–	–	–
GRVTLES	–	–	OVCAR-3 Ovarian	–
DGGSLVV	LOX-IMVI Melanoma	–	–	–
ARRGVLG	COLO-205-Colon	–	–	–
ALVSVAG	SF-295 CNS	–	–	–
SHRVSDS	–	–	–	K-562-Leukemia
FSGLVVA	HT-29 Colon	–	–	–
AAGGLLV	HCC-2998-Colon	–	–	–
PRGLGVG	–	–	SK-MEL-2 Melanoma	–
SALRVGL	–	BT-549 Breast	–	–
GRGLRTD	SF-295 CNS	–	–	–
RQDGGLY	–	–	PC3 Prostate	–
SGSSVRY	SNB-75 CNS	–	–	–
AATLLSF	–	–	–	K-562-Leukemia
VWLRGST	–	–	M14 Melanoma	–
GRDWGGL	–	T-47D Breast	–	–
SKYRLRS	–	–	–	RPMI-8226-Leukemia
DAGGMDL	HT-29 Colon	–	–	–
GGSQCDT	–	–	–	K-562-Leukemia
RLSMASR	–	ACHN Renal	–	–
GVRRSLL	SNB-75 CNS	–	–	–
GLVGWGI	–	BT-549 Breast	–	–
